Measurements as given in US4344958A, “Method of inhibiting sickling of sickle erythrocytes using substituted-2-imidazolines” (priority 1980, dated 1982).

How the values were obtained:
Hb-S = Hb-S (Homo sapiens, UniProt P68871+P69905, E7V); assay: Oxygen-Affinity Assay (whole Hb-S blood, tonometer); format: cell-based; parameters: key: ΔP50 in mm Hg (oxygen tension at 50% saturation, control vs treated); conditions: 37° C., difference control vs treated, negative = toward normal Hb-S oxygen affinity, oxygen partial pressure plotted in mm Hg
Protocol: The compounds described herein were tested in an "Oxygen-Affinity Assay" to measure the ability of the compound to influence the Hb-S oxygen affinity. There is a relationship between oxygen binding and Hb-S gelation and thus a measure of oxygen affinity is an index of Hb-S aggregation within the red blood cell. Hemoglobin S polymers decrease the overall oxygen affinity. Thus a return to normal of Hb-S oxygen affinity is a measure of decreased gelation. For measurements of oxygen equilibria whole Hb-S blood was equilibrated in a tonometer at 37° C. and measurements were made in the presence of a 5 millimolar (mM) or 10 mM concentration of the test compound. The whole blood pH, oxygen tension, and blood PO2 were measured. The percentage of oxygen saturation was plotted against the partial pressure of oxygen (mm Hg). The P50 value (oxygen tension at 50% saturation) was determined for each control and treated whole blood sample and the difference (Δ P50) between the control and treated whole blood sample noted. As used herein, a negative Δ P50 represents a change toward a normal Hb-S oxygen affinity and thus is a measure of the test compound's ability to inhibit the sickling of sickle erythrocytes.

[1] = normal adults, single dosages 25 to 250 milligrams, cited from earlier work
[2] = compound and its pharmaceutically-acceptable salts; cited from earlier work
[3] = compound and its pharmaceutically-acceptable salts; cited from earlier work; remark: listed apart in the source
[4] = compound and its pharmaceutically-acceptable salts; cited from earlier work; remark: listed apart in the source
[5] = compound and its pharmaceutically-acceptable salts; cited from earlier work; remark: listed apart in the source

SMILES	Δ P50 (Hb-S; 5 mM test compound)	Δ P50 (Hb-S; 10 mM test compound)	further results
Cl.Clc1ccc(OCC2=NCCN2)cc1Cl [Example 2, 2-((3,4-dichlorophenoxy)methyl)-2-imidazoline hydrochloride]	-8	-8.0	blood pressure ([1]; at high dose level): increased blood pressure; heart rate ([1]; at high dose level): decreased heart rate; ill effects [1]: no ill effects other than a "tingling sensation" on the skin reported by some of the subjects
Cl.Oc1ccc(SCC2=NCCN2)cc1Cl [Example 3, 2-Chloro-4-(((2-imidazolin-2-yl)methyl)thio)-phenol Hydrochloride]	0	-13.0	
Clc1ccc(OCC2=NCCN2)cc1Cl [fenmetozole, 2-((3,4-Dichlorophenoxy)methyl)-2-imidazoline]			activity against minimal brain dysfunction in children [2]: activity against minimal brain dysfunction in children; antidepressant activity [3]: antidepressant; barbiturate antagonist activity [4]: barbiturate antagonist activity; alcohol antagonist activity [5]: alcohol antagonist activity

The next lines start with results.

Δ P50 (Hb-S; 5 mM test compound)	Δ P50 (Hb-S; 10 mM test compound)	SMILES	further results
-9	-12.6	Cl.Clc1ccc(NCC2=NCCN2)cc1Cl [Example 1, 2-((3,4-dichloroanilino)methyl)-2-imidazoline hydrochloride]	
-9	-10.0	Cl.Cl.Nc1ccc(SCC2=NCCN2)cc1Cl [Example 4, 2-(((4-Amino-3-chlorophenyl)thio)methyl)-2-imidazoline Dihydrochloride]	
